pIC50: −log10 of the molar value.
How the values were obtained:
[1] = molecular target: full-length recombinant human NEK7 (Homo sapiens (Human), UniProt Q8TDX7); experiment: NEK7 Enzymatic Assay; assay type: biochemical; settings: casein substrate, [33P]-ATP, 2 hours at room temperature
How it was run: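 GST-tagged full-length human NEK7 (Sf9-expressed) with 1 mg/mL casein in HEPES pH 7.5/MgCl2 buffer, 1% DMSO; compounds 10 μM–0.5 nM preincubated 20 min at RT. Reaction started with [^33P]-ATP, 2 h at RT, P81 filter radioactivity read; IC50 from % activity remaining versus vehicle.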

[2] = system: IL-1β release; experiment: IL-1β Release Assay; assay type: cell-based; settings: Homo sapiens; PMA-treated THP-1 cells, 250 ng/mL LPS then 20 μM nigericin; cleaved IL-1β in media
Description: Approximately 1.5 million THP-1 cells were plated in each well of a 6-well TC plate and incubated with 40 nM PMA in RPMI (10% FBS, 1% Penstrep) for 24 hours. The media was then removed, and cells were rested in RPMI (10% FBS, 1% Penstrep) for 24 hours after which time the media was removed and cells were pre-treated for 2 hours with various concentrations of compounds of interest (typically serial 3-fold dilution in RPMI+5% FBS, concentrations ranging from 1 μM to 0.5 nM) in RPMI (5% FBS). The media was again removed, and cells were incubated with 250 ng/mL LPS and compounds of interest (concentrations as above) in RMPI (5% FBS) for 2 hours. The media was removed for a last time and cells were incubated with 20 μM nigericin and compounds of interest (concentrations as above) in Opti-MEM for 30 minutes. Cell media was then collected and the amount of cleaved IL-1β was determined using a JESS instrument (Protein Simple) and standard protocols. Cleaved Il-1β antibody was obtained from Cell Signaling (catalogue #83186S) and was used at 1:20 dilution in antibody diluent 2. Protein Simple 1× anti-Rabbit HRP secondary antibody was used along with Protein Simple luminol and peroxide for chemiluminescent detection. Primary antibody incubation time was increased from 30 minutes to 60 minutes.

full-length recombinant human NEK7, sequence (Q8TDX7 whole entry): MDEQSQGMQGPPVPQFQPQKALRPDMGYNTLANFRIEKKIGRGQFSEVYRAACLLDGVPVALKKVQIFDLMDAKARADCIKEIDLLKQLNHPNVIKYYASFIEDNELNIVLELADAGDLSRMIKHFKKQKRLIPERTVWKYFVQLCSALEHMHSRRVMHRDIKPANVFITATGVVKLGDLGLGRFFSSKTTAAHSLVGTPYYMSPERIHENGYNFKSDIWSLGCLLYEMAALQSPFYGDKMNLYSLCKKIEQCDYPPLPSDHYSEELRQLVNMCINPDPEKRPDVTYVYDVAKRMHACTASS

pIC50 [1] | pIC50 [2] | Compound
< 5.70 | < 6.00 | Nc1ncnc2c1c(-c1ccc(NC(=O)Nc3cc(C4(C(F)(F)F)CC4)on3)c3ncccc13)cn2C1CC1 [Example I-4, 1-(5-(4-amino-7-cyclopropyl-7H-pyrrolo[2,3-d]pyrimidin-5-yl)quinolin-8-yl)-3-(5-(1-(trifluoromethyl)cyclopropyl)-isoxazol-3-yl)urea]
> 6.70 | 6.60 to 7.00 | Nc1ncnc2c1c(-c1ccc(NC(=O)Nc3cc(C4(C(F)(F)F)CC4)on3)c3cnccc13)cn2C1CC1 [Example I-8, 1-(5-(4-amino-7-cyclopropyl-7H-pyrrolo[2,3-d]pyrimidin-5-yl)isoquinolin-8-yl)-3-(5-(1-(trifluoromethyl)cyclopropyl)-isoxazol-3-yl)urea]
> 6.70 | > 7.00 | CN1CCN(Cc2ccc(NC(=O)Nc3ccc(-c4cn(C5CC5)c5ncnc(N)c45)c4ccncc34)cc2C(F)(F)F)CC1 [Example I-9, 1-(5-(4-amino-7-cyclopropyl-7H-pyrrolo[2,3-d]pyrimidin-5-yl)isoquinolin-8-yl)-3-(4-((4-methylpiperazin-1-yl)-methyl)-3-(trifluoromethyl)-phenyl)urea]
> 6.70 | > 7.00 | CC(C)(C)c1cc(NC(=O)Nc2ccc(-c3cn(C4CC4)c4ncnc(N)c34)n3ccnc23)n(-c2ccccc2)n1 [Example I-11, 1-(5-(4-amino-7-cyclopropyl-7H-pyrrolo[2,3-d]pyrimidin-5-yl)imidazo[1,2-a]pyridin-8-yl)-3-(3-(tert-butyl)-1-phenyl-1H-pyrazol-5-yl)urea]
> 6.70 | > 7.00 | CC(C)(C)c1cc(NC(=O)Nc2ccc(-c3cn(C4CC4)c4ncnc(N)c34)n3ccnc23)on1 [Example I-17, 1-(5-(4-amino-7-cyclopropyl-7H-pyrrolo[2,3-d]pyrimidin-5-yl)imidazo[1,2-a]pyridin-8-yl)-3-(3-(tert-butyl)isoxazol-5-yl)urea]
> 6.70 | > 7.00 | Nc1ncnc2c1c(-c1ccc(NC(=O)Nc3cc(C4(C(F)(F)F)CC4)no3)c3nccn13)cn2C1CC1 [Example I-22, 1-(5-(4-amino-7-cyclopropyl-7H-pyrrolo[2,3-d]pyrimidin-5-yl)imidazo[1,2-a]pyridin-8-yl)-3-(3-(1-(trifluoromethyl)-cyclopropyl)isoxazol-5-yl)-urea]
> 6.70 | < 6.00 | Nc1ncnc2c1c(-c1ccc(NC(=O)Nc3cc(C4(C(F)(F)F)CC4)on3)c3nccn13)cn2C1CC1 [Example I-32, 1-(5-(4-amino-7-cyclopropyl-7H-pyrrolo[2,3-d]pyrimidin-5-yl)imidazo[1,2-a]pyridin-8-yl)-3-(5-(1-(trifluoromethyl)-cyclopropyl)isoxazol-3-yl)-urea]
> 6.70 | > 7.00 | CN1CCN(Cc2ccc(NC(=O)Nc3ccc(-c4cn(C5CC5)c5ncnc(N)c45)n4ccnc34)cc2C(F)(F)F)CC1 [Example I-34, 1-(5-(4-amino-7-cyclopropyl-7H-pyrrolo[2,3-d]pyrimidin-5-yl)imidazo[1,2-a]pyridin-8-yl)-3-(4-((4-methylpiperazin-1-yl)methyl)-3-(trifluorometh-yl)phenyl)urea]
> 6.70 | > 7.00 | CN1CCC(Oc2ccc(NC(=O)Nc3ccc(-c4cn(C5CC5)c5ncnc(N)c45)n4ccnc34)cc2C(F)(F)F)CC1 [Example I-37, 1-(5-(4-amino-7-cyclopropyl-7H-pyrrolo[2,3-d]pyrimidin-5-yl)imidazo[1,2-a]pyridin-8-yl)-3-(4-((1-methylpiperidin-4-yl)oxy)-3-(trifluorometh-yl)phenyl)urea]
< 5.70 | > 7.00 | CN1CCN(Cc2ccc(NC(=O)Nc3ccc(-c4cn(C5CC5)c5ncnc(N)c45)n4cc(C(F)(F)F)nc34)cc2C(F)(F)F)CC1 [Example I-47, 1-(5-(4-amino-7-cyclopropyl-7H-pyrrolo[2,3-d]pyrimidin-5-yl)-2-(trifluoromethyl)-imidazo[1,2-a]pyridin-8-yl)-3-(4-((4-methylpiperazin-1-yl)-methyl)-3-(trifluoromethyl)-phenyl)urea]
< 5.70 | < 6.00 | CN1CCN(Cc2ccc(NC(=O)Nc3ncc(-c4cn(C5CC5)c5ncnc(N)c45)n4ccnc34)cc2C(F)(F)F)CC1 [Example I-51, 1-(5-(4-amino-7-cyclopropyl-7H-pyrrolo[2,3-d]pyrimidin-5-yl)imidazo[1,2-a]pyrazin-8-yl)-3-(4-((4-methylpiperazin-1-yl)methyl)-3-(trifluorometh-yl)phenyl)urea]
6.30 to 6.70 | 6.00 to 6.60 | Nc1ncnc2c1c(-c1ccc(NC(=O)Nc3cc(C4(C(F)(F)F)CC4)on3)c3c1CCO3)cn2C1CC1 [Example I-52, 1-(4-(4-amino-7-cyclopropyl-7H-pyrrolo[2,3-d]pyrimidin-5-yl)-2,3-dihydrobenzofuran-7-yl)-3-(5-(1-(trifluorometh-yl)cyclopropyl)isoxazol-3-yl)urea]
> 6.70 | > 7.00 | CN1CCN(Cc2ccc(NC(=O)Nc3ccc(-c4cn(C5CC5)c5ncnc(N)c45)c4c3OCC4)cc2C(F)(F)F)CC1 [Example I-53, 1-(4-(4-amino-7-cyclopropyl-7H-pyrrolo[2,3-d]pyrimidin-5-yl)-2,3-dihydrobenzofuran-7-yl)-3-(4-((4-methylpiperazin-1-yl)methyl)-3-(trifluorometh-yl)phenyl)urea]
5.70 to 6.30 | > 7.00 | CC(C)(C)c1cc(NC(=O)Nc2ccc(-c3cn(C4CC4)c4ncnc(N)c34)c3ccoc23)n(-c2ccccc2)n1 [Example I-62, 1-(4-(4-amino-7-cyclopropyl-7H-pyrrolo[2,3-d]pyrimidin-5-yl)benzofuran-7-yl)-3-(3-(tert-butyl)-1-phenyl-1H-pyrazol-5-yl)urea]
5.70 to 6.30 | 6.00 to 6.60 | CC(C)(C)c1cc(NC(=O)Nc2ccc(-c3cn(C4CC4)c4ncnc(N)c34)c3ccoc23)on1 [Example I-63, 1-(4-(4-amino-7-cyclopropyl-7H-pyrrolo[2,3-d]pyrimidin-5-yl)benzofuran-7-yl)-3-(3-(tert-butyl)isoxazol-5-yl)urea]
5.70 to 6.30 | < 6.00 | Nc1ncnc2c1c(-c1ccc(NC(=O)Nc3cc(C4(C(F)(F)F)CC4)on3)c3occc13)cn2C1CC1 [Example I-65, 1-(4-(4-amino-7-cyclopropyl-7H-pyrrolo[2,3-d]pyrimidin-5-yl)benzofuran-7-yl)-3-(5-(1-(trifluoromethyl)cyclopropyl)-isoxazol-3-yl)urea]
6.30 to 6.70 | > 7.00 | CN1CCN(Cc2ccc(NC(=O)Nc3ccc(-c4cn(C5CC5)c5ncnc(N)c45)c4ccoc34)cc2C(F)(F)F)CC1 [Example I-66, 1-(4-(4-amino-7-cyclopropyl-7H-pyrrolo[2,3-d]pyrimidin-5-yl)benzofuran-7-yl)-3-(4-((4-methylpiperazin-1-yl)-methyl)-3-(trifluoromethyl)-phenyl)urea]
> 6.70 | 6.60 to 7.00 | Nc1ncnc2c1c(-c1ccc(NC(=O)Nc3cc(C4(C(F)(F)F)CC4)on3)c3oncc13)cn2C1CC1 [Example I-68, 1-(4-(4-amino-7-cyclopropyl-7H-pyrrolo[2,3-d]pyrimidin-5-yl)benzo[d]isoxazol-7-yl)-3-(5-(1-(trifluoromethyl)cyclo-propyl)isoxazol-3-yl)urea]
> 6.70 | < 6.00 | CN1CCN(Cc2ccc(NC(=O)Nc3ccc(-c4cn(C5CC5)c5ncnc(N)c45)c4cnoc34)cc2C(F)(F)F)CC1 [Example I-69, 1-(4-(4-amino-7-cyclopropyl-7H-pyrrolo[2,3-d]pyrimidin-5-yl)benzo[d]isoxazol-7-yl)-3-(4-((4-methylpiperazin-1-yl)methyl)-3-(trifluorometh-yl)phenyl)urea]
5.70 to 6.30 | < 6.00 | CN1CCN(Cc2ccc(NC(=O)Nc3ccc(-c4cn(C5CC5)c5ncnc(N)c45)c4ncoc34)cc2C(F)(F)F)CC1 [Example I-72, 1-(4-(4-amino-7-cyclopropyl-7H-pyrrolo[2,3-d]pyrimidin-5-yl)benzo[d]oxazol-7-yl)-3-(4-((4-methylpiperazin-1-yl)-methyl)-3-(trifluoromethyl)-phenyl)urea]
> 6.70 | > 7.00 | CC(C)(C)c1cc(NC(=O)Nc2ccc(-c3cn(C4CC4)c4ncnc(N)c34)c3nonc23)on1 [Example I-74, 1-(7-(4-amino-7-cyclopropyl-7H-pyrrolo[2,3-d]pyrimidin-5-yl)benzo[c][1,2,5]oxadiazol-4-yl)-3-(3-(tert-butyl)isoxazol-5-yl)urea]
> 6.70 | > 7.00 | Nc1ncnc2c1c(-c1ccc(NC(=O)Nc3cc(C4(C(F)(F)F)CC4)on3)c3nonc13)cn2C1CC1 [Example I-77, 1-(7-(4-amino-7-cyclopropyl-7H-pyrrolo[2,3-d]pyrimidin-5-yl)benzo[c][1,2,5]oxadiazol-4-yl)-3-(5-(1-(trifluoromethyl)-cyclopropyl)isoxazol-3-yl)urea]

From US20240158394A1, “NEK7 INHIBITORS” (Halia Therapeutics, Inc., priority 2022, published 2024)
